# Test results taken from ChEMBL document CHEMBL1143752, “Fatty acyl amides of endogenous tetrahydroisoquinolines are active at the recombinant human TRPV1 receptor” (Bioorg Med Chem, 2007).
# Assays:
# Assay type in all cases: functional, cell-based
# [1] = target: Transient receptor potential cation channel subfamily V member 1 (Homo sapiens) (UniProt Q8NER1); test: Agonist activity at human TRPV1 expressed HEK293 cells assessed as calcium mobilization at 12 uM
# [2] = target: Transient receptor potential cation channel subfamily V member 1 (Homo sapiens) (UniProt Q8NER1); test: Agonist activity at human TRPV1 expressed HEK293 cells assessed as reduction of capsaicin-induced calcium mobilization at 1 uM; parameters: scale not given: the % may be the effect or the level left
# [3] = target: Transient receptor potential cation channel subfamily V member 1 (Homo sapiens) (UniProt Q8NER1); test: Agonist activity at human TRPV1 expressed HEK293 cells assessed as calcium mobilization at 10 uM
# Sequence of Transient receptor potential cation channel subfamily V member 1 (Homo sapiens) (Q8NER1 whole entry): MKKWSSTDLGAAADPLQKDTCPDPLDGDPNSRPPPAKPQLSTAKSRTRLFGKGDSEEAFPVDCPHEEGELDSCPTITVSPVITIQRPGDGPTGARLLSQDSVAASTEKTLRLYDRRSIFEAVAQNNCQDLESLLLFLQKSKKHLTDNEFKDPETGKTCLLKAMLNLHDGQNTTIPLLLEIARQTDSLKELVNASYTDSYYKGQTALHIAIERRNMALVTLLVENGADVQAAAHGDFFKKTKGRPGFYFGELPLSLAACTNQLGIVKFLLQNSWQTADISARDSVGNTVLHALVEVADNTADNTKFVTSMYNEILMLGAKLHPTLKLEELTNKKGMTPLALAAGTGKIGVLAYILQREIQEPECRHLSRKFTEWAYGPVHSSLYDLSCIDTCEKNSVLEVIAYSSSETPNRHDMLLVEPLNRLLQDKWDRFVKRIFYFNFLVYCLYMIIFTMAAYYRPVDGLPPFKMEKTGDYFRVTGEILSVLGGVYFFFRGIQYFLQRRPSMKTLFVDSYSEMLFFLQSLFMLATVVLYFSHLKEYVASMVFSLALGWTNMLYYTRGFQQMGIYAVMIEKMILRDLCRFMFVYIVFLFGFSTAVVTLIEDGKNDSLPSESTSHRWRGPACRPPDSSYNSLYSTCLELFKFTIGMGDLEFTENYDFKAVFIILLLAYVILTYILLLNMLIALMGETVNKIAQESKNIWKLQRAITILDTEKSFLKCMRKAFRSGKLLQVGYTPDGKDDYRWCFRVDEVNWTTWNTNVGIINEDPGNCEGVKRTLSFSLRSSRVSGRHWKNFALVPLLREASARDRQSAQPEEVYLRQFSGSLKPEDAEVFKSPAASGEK
Compound,Activity [1],Activity [2],Activity [3]
CC/C=C/C/C=C/C/C=C/C/C=C/C/C=C/C/C=C/CCC(=O)N1CCc2cc(OC)c(O)cc2C1C (configuration not stated),14%,5%,–
CCCCC/C=C/C/C=C/CCCCCCCC(=O)N1CCc2cc(OC)c(O)cc2C1C (configuration not stated),–,25%,11%
CCCCC/C=C/C/C=C/C/C=C/C/C=C/CCCC(=O)N1CCc2cc(O)c(O)cc2C1C (configuration not stated),–,40%,55%
CCCCC/C=C/C/C=C/CCCCCCCC(=O)N1CCc2cc(O)c(O)cc2C1C (configuration not stated),–,35%,36%
CC/C=C/C/C=C/C/C=C/C/C=C/C/C=C/C/C=C/CCC(=O)N1CCc2cc(O)c(O)cc2C1C (configuration not stated),–,45%,25%
CCCCC/C=C/C/C=C/C/C=C/C/C=C/CCCC(=O)N1CCc2cc(OC)c(O)cc2C1C (configuration not stated),–,35%,18%
